Like-named read-outs stand apart in the source and are kept apart here.
Assays:
[1] = Oral bioavailability in rats, Method B; type: in vivo; conditions: Sprague Dawley rats; for AUC(0-t) / half-life / Cmax: male, rat; for AUC(0-t) / half-life / Cmax / F: plasma, Method B; for F: 10 mg/kg
Procedure: Animals. Male Sprague Dawley rats were used in these studies. Animals were randomly assigned to treatment groups and were fasted overnight before oral dosing.
Drugs. Test compounds were dissolved in a vehicle consisting of normal saline (compounds 14R, 88R, 29rac, and 27rac) or a mixture of 5% v/v N-methyl-2-pyrrolidone, 5% v/v Solutol HS-15, and 90% v/v normal saline (compounds 84R and 84S). They were then administered intravenously (iv) or orally (po) at a dose of 10 mg/kg (calculated based on freebase) and at a volume of 5 mL/kg body weight. Compounds were tested as the racemates (indicated by “rac” nomenclature) or pure enantiomers (indicated by “R” or “S” nomenclature).
Sample Collection and Bioanalysis. Blood samples (approximately 120 μL) were collected under light isoflurane anesthesia (Surgivet®) from the retro orbital plexus at 0.08, 0.25, 0.5, 1, 2, 4, 8, and 24 h (total 8 time points/rat, 4 rats per administration route per compound). Immediately after blood collection, plasma was harvested by centrifugation at 4000 rpm for 10 min at 4° C. and samples were stored at −70±10° C. until bioanalysis. For bioanalysis, 25 μL aliquots of plasma study samples or spiked plasma calibration standards were added to individual pre-labeled micro-centrifuge tubes followed by 100 μL of an internal standard solution (glipizide, 500 ng/mL in acetonitrile) except for blanks, where 100 μL of acetonitrile was added. Samples were vortexed for 5 minutes and then centrifuged for 10 minutes at 4000 rpm at 4° C. Following centrifugation, 100 μL of each clear supernatant was transferred to a 96 well plate and analyzed with a fit-for-purpose LC-MS/MS method, with authentic samples of each analyte used for calibration and identification. In the case of compounds 14R and 88R, their metabolite 11R was also quantified in plasma samples.
(§1) Data Analysis. Pharmacokinetic parameters were estimated using the non-compartmental analysis tool of Phoenix® WinNonlin software (Ver 8.0).

[2] = target: T1, serotonin transporter (SERT) (Homo sapiens, UniProt P31645); assay: Fluorescent substrate uptake inhibition, SERT; type: cell-based; conditions: for inhibition at 10 µM: HEK293 cells expressing SERT
T1 construct: expressed in transfected cells; host or cells: HEK293

[3] = target: T2, dopamine transporter (DAT) (Homo sapiens, UniProt Q01959); assay: Fluorescent substrate uptake inhibition, DAT; type: cell-based; conditions: for inhibition at 10 µM: CHO cells expressing DAT
T2 construct: expressed in transfected cells; host or cells: CHO (uptake)

[4] = Oral bioavailability in mice, Method B; type: in vivo; conditions: CD-1 mice; for AUC0-inf (iv) / AUC0-last (po) / AUC(0-inf): Method B: values represent AUC0-last (footnote); for F: 10 mg/kg; for half-life / Cmax / AUC(0-inf): male, mouse
Procedure: Animals. Male CD-1 mice were used in these studies Animals were randomly assigned to treatment groups and were fasted for 4 h before oral dosing.
Drugs. Test compounds were dissolved in a vehicle consisting of normal saline (compounds 19S and 88R) or a mixture of 5% v/v N-methyl-2-pyrrolidone, 5% v/v Solutol HS-15, and 90% v/v normal saline (compounds 11S, 11R, 114S, and 114R). They were then administered intravenously (iv) or orally (po) at a dose of 10 mg/kg (calculated based on freebase) and at a volume of 5 mL/kg body weight. Compounds were tested as the racemates (indicated by “rac” nomenclature) or pure enantiomers (indicated by “R” or “S” nomenclature).
Sample Collection and Bioanalysis. Blood samples (approximately 60 μL) were collected under light isoflurane anesthesia (Surgivet®) from the retro orbital plexus at 0.08, 0.25, 0.5, 1, 2, 4, 8, and 24 h (4 animals per time point) Immediately after blood collection, plasma was harvested by centrifugation at 4000 rpm for 10 min at 4° C. and samples were stored at −70±10° C. until bioanalysis. Following blood collection, animals were immediately sacrificed, the abdominal vena-cava was cut open, and the whole body was perfused from the heart using 10 mL of normal saline, and brain samples were collected from all animals After isolation, brain samples were rinsed three times in ice-cold normal saline (for 5-10 seconds/rinse using ˜5-10 mL normal saline in disposable petri dish for each rinse) and dried on blotting paper. Brain samples were homogenized using ice-cold phosphate-buffered saline (pH 7.4). Total homogenate volume was three times the tissue weight. All homogenates were stored at −70±10° C. until bioanalysis. For bioanalysis, 25 μL aliquots of plasma/brain study samples or spiked plasma/brain calibration standards were added to individual pre-labeled micro-centrifuge tubes followed by 100 μL of an internal standard solution (glipizide, 500 ng/mL in acetonitrile) except for blanks, where 100 μL of acetonitrile was added. Samples were vortexed for 5 minutes and then centrifuged for 10 minutes at 4000 rpm at 4° C. Following centrifugation, 100 μL of each clear supernatant was transferred to a 96 well plate and analyzed with a fit-for-purpose LC-MS/MS method, with authentic samples of each analyte used for calibration and identification.
as §1

[5] = 10 mg/kg iv, read-out: AUC0-last (iv) (converted)
[6] = 10 mg/kg iv, read-out: t1/2 (iv)
[7] = 10 mg/kg po, read-out: AUC0-last (po) (converted)
[8] = 10 mg/kg po, read-out: t1/2 (po)
[9] = calculated based on brain exposure (AUC0-last), Method B
[10] = brain, 10 mg/kg iv, Method B, read-out: t1/2 (iv)
[11] = brain, 10 mg/kg po, Method B, read-out: t1/2 (po)
[12] = plasma, 10 mg/kg iv, read-out: AUC0-inf (iv) (converted)
[13] = plasma, 10 mg/kg iv, Method B, read-out: t1/2 (iv)
[14] = plasma, 10 mg/kg po, read-out: AUC0-inf (po) (converted)
[15] = plasma, 10 mg/kg po, Method B, read-out: t1/2 (po)
[16] = plasma, Method B: based on AUC0-last

T1 sequence (P31645 whole entry, species assumed): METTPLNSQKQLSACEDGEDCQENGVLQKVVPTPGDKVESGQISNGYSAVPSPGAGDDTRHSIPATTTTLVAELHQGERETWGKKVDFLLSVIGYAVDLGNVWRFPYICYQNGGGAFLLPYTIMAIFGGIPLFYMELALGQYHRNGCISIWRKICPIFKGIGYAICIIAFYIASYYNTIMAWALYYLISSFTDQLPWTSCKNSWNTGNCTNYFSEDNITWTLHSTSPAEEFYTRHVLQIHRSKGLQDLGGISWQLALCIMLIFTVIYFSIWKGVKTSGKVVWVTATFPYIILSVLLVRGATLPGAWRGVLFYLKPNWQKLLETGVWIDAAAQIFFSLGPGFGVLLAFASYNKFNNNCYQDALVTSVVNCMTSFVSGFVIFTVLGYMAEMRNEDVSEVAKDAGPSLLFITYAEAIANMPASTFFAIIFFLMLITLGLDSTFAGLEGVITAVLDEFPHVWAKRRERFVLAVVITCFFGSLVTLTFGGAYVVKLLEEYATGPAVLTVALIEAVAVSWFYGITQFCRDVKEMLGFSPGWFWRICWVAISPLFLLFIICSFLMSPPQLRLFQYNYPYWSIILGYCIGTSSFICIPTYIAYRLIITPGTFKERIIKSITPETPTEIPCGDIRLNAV
T2 sequence (Q01959 whole entry, species assumed): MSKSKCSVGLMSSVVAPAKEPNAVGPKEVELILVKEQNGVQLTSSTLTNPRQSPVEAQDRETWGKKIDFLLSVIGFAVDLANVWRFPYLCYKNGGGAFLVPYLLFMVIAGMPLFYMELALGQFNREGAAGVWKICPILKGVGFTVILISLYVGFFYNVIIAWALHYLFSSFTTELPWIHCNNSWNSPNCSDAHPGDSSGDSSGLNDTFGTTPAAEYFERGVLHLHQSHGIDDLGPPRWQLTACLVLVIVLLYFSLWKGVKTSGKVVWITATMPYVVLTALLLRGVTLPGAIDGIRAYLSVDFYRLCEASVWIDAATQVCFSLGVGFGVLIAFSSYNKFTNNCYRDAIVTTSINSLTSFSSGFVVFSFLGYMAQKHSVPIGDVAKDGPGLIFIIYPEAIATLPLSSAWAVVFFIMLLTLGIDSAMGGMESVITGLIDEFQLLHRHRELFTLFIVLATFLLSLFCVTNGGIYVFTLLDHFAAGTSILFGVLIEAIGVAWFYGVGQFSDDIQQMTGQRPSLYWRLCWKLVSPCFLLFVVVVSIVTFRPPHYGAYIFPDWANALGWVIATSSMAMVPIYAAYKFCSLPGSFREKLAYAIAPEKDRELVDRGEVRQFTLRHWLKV

In the case of `CN[C@@]1(c2ccccc2)CCCCC1=O` [Compound 14R, (R)-2-(methylamino)-2-phenylcyclohexan-1-one], the AUC(0-t) [1, 5] is reported as 1.96 µg·h/mL, the half-life [1, 6] is reported as 37.8 min and the Cmax ([1]; 10 mg/kg po) is reported as 0.235 µg/mL. It also gave an AUC(0-t) [1, 7] of 0.237 µg·h/mL, a half-life [1, 8] of 30.6 min and an F [1] of 12%. It also gave an IC50 [2] of 45.5 µM, an inhibition at 10 µM [2] of 19.3% and an inhibition at 10 µM [3] of -4.5%.

In the case of `O=C1CCCC[C@]1(c1ccccc1)N1CCC1` [Compound 84R, (R)-2-(azetidin-1-yl)-2-phenyl-cyclohexan-1-one], the AUC(0-t) [1, 5] is reported as 0.369 µg·h/mL, the half-life [1, 6] is reported as 37.2 min and the Cmax ([1]; 10 mg/kg po) is reported as 0.0155 µg/mL. For the same compound, the AUC(0-t) [1, 7] was 0.0119 µg·h/mL, the half-life [1, 8] was 27 min and the F [1] was 3%. It also gave an IC50 [2] of 0.8 µM, an inhibition at 10 µM [2] of 75.2% and an IC50 [3] of 19.4 µM. The inhibition at 10 µM [3] was 28.2%.

With `[2H]C([2H])([2H])N[C@@]1(c2ccccc2)CCCCC1=O` [Compound 88R, (R)-2-((methyl-d3)amino)-2-phenylcyclohexan-1-one] the “AUC0-inf (iv)” value ([4]; brain, 10 mg/kg iv) was 334,518 ng*min/g, the “AUC0-last (po)” value ([4]; brain, 10 mg/kg po) was 143,445 ng*min/g and the F [4, 9] was 43%. For the same compound, the half-life [4, 10] was 36 min, the Cmax ([4]; brain, 10 mg/kg po, Method B) was 3100 ng/g and the half-life [4, 11] was 79.8 min. The AUC(0-inf) [4, 12] was 1.53 µg·h/mL, the half-life [4, 13] was 34.2 min and the Cmax ([4]; plasma, 10 mg/kg po, Method B) was 0.621 µg/mL. For the same compound, the AUC(0-inf) [4, 14] was 0.718 µg·h/mL, the half-life [4, 15] was 82.8 min and the F [4, 16] was 47%. For the same compound, the “formation of the metabolite 11R compared to 14R after oral administration” value ([1]; 10 mg/kg po) was “reduced”, the AUC(0-t) [1, 5] was 1.67 µg·h/mL and the half-life [1, 6] was 59.4 min. It also gave a Cmax ([1]; 10 mg/kg po) of 0.393 µg/mL, an AUC(0-t) [1, 7] of 0.335 µg·h/mL and a half-life [1, 8] of 45.6 min. The F [1] was 20%, the inhibition at 10 µM [2] was 25.9% and the inhibition at 10 µM [3] was 7.9%.

Compound `O=C1CCCC[C@@]1(c1ccccc1)N1CCC1` [Compound 84S, (S)-2-(azetidin-1-yl)-2-phenyl-cyclohexan-1-one] has an AUC(0-t) [1, 5] of 0.482 µg·h/mL, a half-life [1, 6] of 46.2 min and a Cmax ([1]; 10 mg/kg po) of 0.0698 µg/mL. For the same compound, the AUC(0-t) [1, 7] was 0.077 µg·h/mL, the half-life [1, 8] was 37.2 min and the F [1] was 16%. It also gave an IC50 [2] of 0.94 µM, an inhibition at 10 µM [2] of 91.9% and an IC50 [3] of 19.5 µM. For the same compound, the inhibition at 10 µM [3] was 32.2%.

In the case of `N[C@@]1(c2ccccc2)CCCCC1=O` [Compound 11R, (R)-2-amino-2-phenyl-cyclohexan-1-one], the “AUC0-inf (iv)” value ([4]; brain, 10 mg/kg iv) is reported as 621,341 ng*min/g, the “AUC0-last (po)” value ([4]; brain, 10 mg/kg po) is reported as 220,091 ng*min/g and the F [4, 9] is reported as 35%. For the same compound, the half-life [4, 10] was 70.2 min, the Cmax ([4]; brain, 10 mg/kg po, Method B) was 1470 ng/g and the half-life [4, 11] was 114 min. The AUC(0-inf) [4, 12] was 5.57 µg·h/mL, the half-life [4, 13] was 66.6 min and the Cmax ([4]; plasma, 10 mg/kg po, Method B) was 1.43 µg/mL. The AUC(0-inf) [4, 14] was 4.21 µg·h/mL, the half-life [4, 15] was 145 min and the F [4, 16] was 76%. For the same compound, the inhibition at 10 µM [2] was 0.19% and the inhibition at 10 µM [3] was -11.8%.

With `Cc1ccccc1[C@]1(N)CCCCC1=O` [Compound 114R, (R)-2-amino-2-(o-tolyl)cyclohexan-1-one] the “AUC0-inf (iv)” value ([4]; brain, 10 mg/kg iv) was 155,752 ng*min/g, the “AUC0-last (po)” value ([4]; brain, 10 mg/kg po) was 38,185 ng*min/g and the F [4, 9] was 25%. For the same compound, the half-life [4, 10] was 19.2 min, the Cmax ([4]; brain, 10 mg/kg po, Method B) was 683 ng/g and the half-life [4, 11] was 67.2 min. For the same compound, the AUC(0-inf) [4, 12] was 0.325 µg·h/mL, the half-life [4, 13] was 45 min and the Cmax ([4]; plasma, 10 mg/kg po, Method B) was 0.319 µg/mL. For the same compound, the AUC(0-inf) [4, 14] was 0.43 µg·h/mL, the half-life [4, 15] was 76.8 min and the F [4, 16] was 132%. For the same compound, the inhibition at 10 µM [2] was 23.4% and the inhibition at 10 µM [3] was 6.2%.

Reference: patent US11344510B2, “Arylcyclohexylamine derivatives and their use in the treatment of psychiatric disorders” (Gilgamesh Pharmaceuticals, Inc., priority 2019, dated 2022)
